Data reported in patent US20260345582A1, “PRODRUG FOR ANTI-AGING RELATED DISEASES AND USE METHOD THEREOF” (Beijing SunCell Bio-Medical Co., Ltd., priority 2022, published 2026).

What was measured:
[1] = tested on: A549 cells (human non-small cell lung cancer cell), induced senescent with Cisplatin; experiment: in vitro killing of induced senescent A549 cells (CCK-8); type: cell-based
Text: A. The killing results of some selected compounds in the in vitro compound library screening on the induced senescent A549 cell model. Wherein, MZ-1, dBET6, ARV-825, I-BET726, I-BET151, and INCB057643 are all BET inhibitors; A1331852 and A1155463 are novel Bcl-xL inhibitors; Dasatinib, Quercetin, Fisetin, Curcumin are the familiar active drugs or natural products.
B. Comparison of the killing effects of three Bcl-xL inhibitors on the induced senescent A549 cell model. A549 represents the normal uninduced A549 cell group; and A549-CDDP represents the senescent A549 cell group induced with Cisplatin (CDDP) in vitro.
(§1) Induction of the Cellular Senescence

[2] = tested on: HEF cells (primary human embryonic skin fibroblast), induced senescent with Etoposide; experiment: in vitro killing of induced senescent HEF cells (CCK-8); type: cell-based
Text: C. Comparison of the killing effects of three Bcl-xL inhibitors on the induced senescent HEF cell model. HEF represents the isolated early generation uninduced HEF cell group; and HEF-ETO represents the senescent HEF cell group induced with Etoposide (ETO) in vitro.
as §1

[3] = tested on: platelets in peripheral blood; experiment: in vivo platelet toxicity test, multiple intraperitoneal injections; set-up: species or system C57 mice
Method: B. The schematic diagram of the multiple dosing and the subsequent blood routine examinations in mice. The drug was administered on 3 consecutive days per week, followed by a 4-day interval, for 3 weeks continuous administration. The drug was administered by intraperitoneal injection in the afternoon on days 0, 1, 2, 7, 8, 9, 14, 15, and 16, and the blood was collected and tested in the morning on days 1, 3, 5, 8, 10, 12, 15, 17, and 19, respectively.
C. Results of the platelet counts in peripheral blood on days 1, 3, 5, 8, 10, 12, 15, 17, and 19 after multiple intraperitoneal injections of different doses of the given drug. Each dot in the panel represents the count of platelets detected in 1 mouse at that time point (n=4 mice); mpk represents the milligram dose per kilogram of the body weight, A13 represents the parent compound A1331852 administration group, and A13bGa1 represents the prodrug obtained after the β-gal modification of A13. The dashed line in the panel indicates the mean value of platelet counts in mice in the single vehicle administration control group.
In Vivo Platelet Toxicity Test
A single administration of A13 or A13bG was performed. Female 5-6 week old C57 mice were treated with a single intraperitoneal injection. A13 and A13bG were administered in three different dose groups of 2, 5, and 20 mg/kg. Approximately 50 μl of blood was collected from each mouse at different time points into the EDTA tubes (RAM Scientific) by means of inner canthal blood extraction, and analyzed using a haematology analyzer for a blood routine examination and a platelet counting. Multiple administrations of A13 or A13bG were performed. Female 5-6 week old C57 mice were treated with multiple intraperitoneal injections. A13 and A13bG were administered in three different dose groups of 2, 5 and 20 mg/kg, three consecutive days per week, followed by a 4-day withdrawal for 3 weeks. The time points of administration were in the afternoon of days 0, 1, 2, 7, 8, 9, 14, 15, and 16, and the time points of blood collection and testing were in the morning of days 1, 3, 5, 8, 10, 12, 15, 17, and 19, respectively.
For a blood routine examination, 50 μl of fresh blood was collected from each mouse and immediately mixed with EDTA. Blood samples were analyzed by Celltac Alpha MEK-6400 series haematology analyzer (Nihon Kohden, MEK-6400). Data were expressed as the number of different blood cells or platelets per μl of blood. For the serum biochemical analysis, the blood samples were collected, coagulated for 2 hours at room temperature or overnight at 4 °C, and then centrifuged (1000 g, 10 minutes) to obtain serum. A 200 μl of serum was aliquoted and analyzed for alanine aminotransferase (ALT), aspartate aminotransferase (AST), uric acid (UA), and creatinine (CREA) by a chemistry analyzer (Mindray, BS-350E).

[4] = tested on: mouse model of Bleomycin-induced pulmonary fibrosis; experiment: Masson staining of lungs (degree of fibrosis), Bleomycin-induced pulmonary fibrosis; type: in vivo, C57 mice; details: of 6 animals; A13 2 mg/kg, A13bGa1 5 mg/kg
Method: A. Modelling of a mouse model of Bleomycin-induced pulmonary fibrosis, and the schematic diagram of treatment. Mice were modelled with Bleomycin administered via tracheal instillation on day 0, and the treatment with intraperitoneal injection of the drug was started on day 4. The drug was administered for 3 consecutive days per week, followed by a 4-day withdrawal, for 4 weeks.
D. Representative results of HE and Masson staining of the pathological sections of lungs taken from different groups of mice after execution. Normal represents the saline tracheal instillation modelling control group; Vehicle represents the vehicle administration control group; A13bGa1 represents the prodrug treatment group; A13 represents the A1331852 treatment group. Scale bar: 500 μm.
All drugs were mixed in 85% physiological saline, 5% DMSO (Sigma, D8418) and 10% Solutol HS 15 (Sigma, 42966), and administered to mice by intraperitoneal (i.p.) injection. To treat the bleomycin-injured young mice, A13 (2 mg/kg), A13bGa1 (5 mg/kg), or an empty vehicle control was administered three consecutive days per week for four weeks. A1331852 (abbreviated as A13) was purchased from MCE.
Bleomycin-Induced Pulmonary Fibrosis
Bleomycin was purchased from Selleck. As previously reported (Bivas-Benita et al., Eur J Pharm Biopharm 61, 214-218 (2005)), a transtracheal injection of bleomycin (2 mg/kg) was performed to the young male C57 mice (8-10 weeks old) to induce lung fibrosis. Drug treatment was initiated four days after modelling, and the drug was administered three consecutive days per week for four consecutive weeks, after which the mice were executed for material collection.
Masson trichrome stain kit (Solarbio, G1340) was used to detect fibrosis in the lung tissue. The formalin-fixed, and paraffin-embedded lung sections were dewaxed with xylene, and then rehydrated with 100% alcohol, 95% alcohol and distilled water. The sections were then stained according to the manufacturer's instructions. Afterwards, the sections were rapidly dehydrated with 95% alcohol and 100% alcohol, cleaned with xylene and covered with the coverslips. Images were acquired using a bright-field optical microscope (10× eyepiece) (OLYMPUS, BX43), and the degree of fibrosis of the lung tissue was graded according to the intensity of staining (weakly positive, moderately positive, moderately strong positive, and very strong positive).

Compound	selective killing effect on the senescent cells ([1]; A549-CDDP vs A549, FIG. 1B)	senescent cell killing activity and selectivity, compound screening ([1]; induced senescent A549 cell model, FIG. 1A)	selective killing effect on the senescent cells ([2]; HEF-ETO vs HEF, FIG. 1C)	toxic effects on the platelets at the lowest dose ([3]; multiple rounds i.p., 2 mg/kg, 3 consecutive days per week, 3 weeks, FIG. 4C)	destructive effects on the platelets at the three doses tested ([3]; multiple rounds i.p., 2, 5, 20 mg/kg, FIG. 4C)	number of the peripheral blood platelets during monitoring ([3]; multiple rounds i.p., FIG. 4C)	degree of fibrosis, Masson staining: Moderately strong positive (+++) [4]	degree of fibrosis, Masson staining: extremely strong positive (++++) [4]	degree of fibrosis, Masson staining: moderately positive (++) [4]	degree of fibrosis, Masson staining: not positive (−) [4]	degree of fibrosis, Masson staining: weakly positive (+) [4]	killing of the senescent cells, efficiency and selectivity ([1]; A549 cells, lung-derived, FIG. 3E)	killing of the senescent cells, efficiency and selectivity ([2]; HEF cells, human skin-derived fibroblasts, FIG. 3B)	changes in the number of the peripheral blood platelets ([3]; multi-round i.p. regimen, FIG. 4C)	toxic side effects on the platelets ([3]; multi-round i.p. regimen, in contrast to A13, FIG. 4C)
Cc1c(-c2ccc(N3CCc4cccc(C(=O)Nc5nc6ccccc6s5)c4C3)nc2C(=O)O)cnn1CC12CC3CC(CC(C3)C1)C2 [Compound A13, 3-[1-(adamantan-1-ylmethyl)-5-methylpyrazol-4-yl]-6-{8-[(1,3-benzothiazol-2-yl)carbamoyl]-3,4-dihydro-1H-isoquinolin-2-yl}pyridine-2-carboxylic acid]	selective killing effect on the senescent cells	good senescent cell killing activity and selectivity in vitro	selective killing effect on the senescent cells	very serious toxic effects on the platelets	strong destructive effects on the platelets	dramatic fluctuations in the number of the peripheral blood platelets	1 number of animals	2 number of animals	1 number of animals	0 number of animals	2 number of animals				
Cc1c(-c2ccc(N3CCc4cccc(C(=O)Nc5nc6ccccc6s5)c4C3)nc2C(=O)OCc2ccc(O[C@@H]3O[C@H](CO)[C@H](O)[C@H](O)[C@H]3O)c([N+](=O)[O-])c2)cnn1CC12CC3CC(CC(C3)C1)C2 [Compound A13bGa1]							0 number of animals	0 number of animals	1 number of animals	3 number of animals	2 number of animals	highly efficient and selective in killing the senescent cells	highly efficient and selective in killing the senescent cells	relatively stable	significantly reduced
